The subject of this assay is L929. In words: Cytotoxicity against mouse L929 cells. It counts as cell-based.

The text below walks through data of ChEMBL document CHEMBL1158145, “Xenofuranones A and B: phenylpyruvate dimers from Xenorhabdus szentirmaii” (J Nat Prod, 2006).

≈ marks a conversion by molar mass, not a printed value.

Regarding `COC1=C(c2ccccc2)C(Cc2ccccc2)OC1=O` (stereo unspecified) [XENOFURANONE A], the IC50 – broadly, the concentration at which inhibition is half-maximal – turned out to be 18 µg/mL (≈ 64.2 µM).
